From ChEMBL document CHEMBL1155102, “Synthesis of all stereoisomers of KRN7000, the CD1d-binding NKT cell ligand” (Bioorg Med Chem Lett, 2008) come the findings set out here.

The source made the active and inactive calls. No cut-off for these calls is given here.

Common to all, as to format: functional, cell-based
Test [1] relates to iNKT. As to the kind of experiment: Induction of proliferation in mouse iNKT cells.
The test system of test [2] is iNKT. As to the kind of experiment: Induction of IL4 production in mouse iNKT cells.
For test [3], the system named is iNKT. Briefly: Induction of IFN-gamma production in human iNKT cells.
Test [4] concerns iNKT. As to the kind of experiment: Induction of IL4 production in human iNKT cells.
Test [5] concerns iNKT. Briefly: Induction of IFN-gamma production in mouse iNKT cells.
Test [6] has as its system iNKT. Briefly: Induction of IL4/IL13 production in mouse iNKT cells.
For test [7], the system named is iNKT. Briefly: Induction of IL13 production in human iNKT cells.

As to `CCCCCCCCCCCCCCCCCCCCCCCCCC(=O)N[C@H](CO[C@H]1O[C@H](CO)[C@H](O)[C@H](O)[C@H]1O)[C@@H](O)[C@@H](O)CCCCCCCCCCCCCC`, the result in test [1] was Active.
With `CCCCCCCCCCCCCCCCCCCCCCCCCC(=O)N[C@H](CO[C@H]1O[C@H](CO)[C@H](O)[C@H](O)[C@H]1O)[C@@H](O)[C@H](O)CCCCCCCCCCCCCC`, in test [2], the result was Active.
On to `CCCCCCCCCCCCCCCCCCCCCCCCCC(=O)N[C@H](CO[C@H]1O[C@H](CO)[C@H](O)[C@H](O)[C@H]1O)[C@H](O)[C@H](O)CCCCCCCCCCCCCC`, for which the result in test [3] and in test [4] was inactive.
As for `CCCCCCCCCCCCCCCCCCCCCCCCCC(=O)N[C@@H](CO[C@H]1O[C@H](CO)[C@H](O)[C@H](O)[C@H]1O)[C@H](O)[C@@H](O)CCCCCCCCCCCCCC`, the result in test [1], in test [5], in test [6], in test [3], in test [4] and in test [7] was Active.
As for `CCCCCCCCCCCCCCCCCCCCCCCCCC(=O)N[C@@H](CO[C@H]1O[C@H](CO)[C@H](O)[C@H](O)[C@H]1O)[C@@H](O)[C@H](O)CCCCCCCCCCCCCC`, the outcome in test [1], in test [2], in test [3], in test [4] and in test [7] was Active.
`CCCCCCCCCCCCCCCCCCCCCCCCCC(=O)N[C@@H](CO[C@H]1O[C@H](CO)[C@H](O)[C@H](O)[C@H]1O)[C@@H](O)[C@@H](O)CCCCCCCCCCCCCC`: the result in test [2], in test [3], in test [4] and in test [7] was Active.
`CCCCCCCCCCCCCCCCCCCCCCCCCC(=O)N[C@@H](CO[C@H]1O[C@H](CO)[C@H](O)[C@H](O)[C@H]1O)[C@H](O)[C@H](O)CCCCCCCCCCCCCC`: the outcome in test [1], in test [5], in test [6], in test [3], in test [4] and in test [7] was Active.
